Measured values as given in article PMC10649961, “Novel Mitochondria-Targeted Amphiphilic Aminophosphonium Salts and Lipids Nanoparticles: Synthesis, Antitumor Activity and Toxicity” (Nanomaterials, 2023).

Assays:
[1] = test system: human volunteer donor erythrocytes; experiment: Hemolytic assay; format: cell-based; details: hemolysis in 50% of human erythrocytes, 1 h, 37 °C
Procedure: The hemolytic activity of Aminophosphonium Salts was assessed by comparing the optical density of a solution containing the test compound with the optical density of blood at 100% hemolysis. Healthy human volunteer donor erythrocytes were used as the object of the study. Red blood cells with EDTA (1.8 mg/mL) were washed three times with saline (0.9% NaCl), centrifuged for 10 min at 800× g rpm, and resuspended in saline (0.9% NaCl) to a concentration of 10%. The tested concentrations (0.1–100 μM) were prepared in physiological solution (0.9% NaCl) (with the addition of 5% DMSO). Compounds at the appropriate dilution (450 μL) were added to 50 μL of a 10% red blood cell suspension. Samples were incubated for 1 h at 37 °C and centrifuged for 10 min at 2000 rpm. The release of hemoglobin was controlled by measuring the optical density of the supernatant on an InvitroLogic microplate reader at λ = 540 nm. A control sample corresponding to zero hemolysis (blank experiment) was prepared by adding 50 μL of a 10% red blood cell suspension to 450 μL of saline (0.9% NaCl). A control sample corresponding to 100% hemolysis was prepared by adding 50 μL of a 10% red blood cell suspension to 450 μL of distilled water. Blood was taken at the Clinic of the Federal Research Center “Kazan Scientific Center of the Russian Academy of Sciences” from healthy donors with their personal consent.

[2] = In vivo acute toxicity, single intraperitoneal injection; parameters: species or system mice; details: male, CD-1, mouse, in vivo, ip, male CD-1 mice, single intraperitoneal administration, 14 days, Probit analysis
Procedure: (§1) The study of acute toxicity was performed on males of outbred white mice of the CD-1 line at the age of 2–3 months, weighing 20–30 g. The total number of mice participating in the experiment was 300. Mice were obtained from the Research and Production Enterprise Laboratory Animal Farm based at the Branch of Shemyakin and Ovchinnikov Institute of Bioorganic Chemistry of the Russian Academy of Sciences (Pushchino, Russia). The animals were kept in accordance with in standard conditions in a vivarium with 12 h of daylight and free access to food and water. The animals were fed complete feed made according to specifications (protein 22%, fiber 4% max., fat 5% max, ash 9% max, humidity 13.5% max, caloric value 295 kcal/100 g). The studies were conducted with a single parenteral–intraperitoneal (intra-peritoneal) injection, according to the method.
(§2) The substances were introduced in a sterile saline DMSO (40% vol.) solution. Solutions of the substances were prepared immediately before administration. The total volume of the injected liquid was 0.1 mL/10 g of animal weight. As a control, a group of mice was administered under similar conditions an equivalent amount (0.1 mL/10 g, or 10 mL/kg) of a solvent—40% DMSO on sterile saline solution. The substances were administered in doses ranging from 1 to 100 mg/kg; there were six animals in each group. To assess acute toxicity, the animals were monitored 14 days after administration of the substance, assessing their general condition and recording deaths.
(§3) The study of the acute toxicity parameters of six aminophosphonium salts 4a, 4b, 4d, 5a, 5b, and 6b was performed on male outbreed white mice of the CD-1 line. Acute toxicity was determined with a single parenteral (intraperitoneal) administration in sterile saline/DMSO (40% vol.) solution at doses from 1 to 100 mg/kg. To assess acute toxicity, the animals were monitored for 14 days after the introduction of substances, assessing their general condition and recording deaths. Next, lethal doses LD50, LD0, LD16, LD84, and LD100 were calculated using the Probit analysis method. LD0, LD16, LD84, and LD100 are given in Supplementary Material (Table S1).

mice of the CD-1 line = experiment: as above; details: for onset of animal death after administration: doses of LD100; for acute toxicity class: according to the classification [105], parenteral administration
Procedure: as §1, §2, §3

HuTu 80 cells [3] = experiment: Intracellular ROS, CellROX Deep Red flow cytometry; format: cell-based, human; details: HuTu 80, IC50/2 and IC50, compared with the control
Procedure: ROS generation was investigated using a flow cytometry assay and the CellROX® Deep Red flow cytometry kit. For this, HuTu 80 cells were harvested at 2000 rpm for 5 min and then washed twice with ice-cold PBS, followed by resuspension in 0.1 mL of medium without FBS, to which was added 0.2 μL of CellROX® Deep Red and incubated at 37 °C for 30 min. After three washes, cells were suspended in PBS, and the cell production of ROS was immediately monitored using a flow cytometer (Guava easy Cyte).

PC3 = experiment: cells; details: Homo sapiens, PC-3, 48 h, read-out: Cytotoxic Effects (IC50), PC3, MTT assay, 48 h
HuTu 80 cells [4] = experiment: Cell apoptosis assay, Annexin V/propidium iodide flow cytometry; format: cell-based, human; details: HuTu 80, 48-h incubation, IC50/2 and IC50
Procedure: HuTu 80 cells at a rate of 1 × 10^6 cells/well were seeded into six-well plates and incubated until a monolayer formed for approximately 24 h. After […] of incubation, various concentrations of compounds 4b, 5b, 6a, and 8 were added to the wells.
Cells were detached with a trypsin-versene solution (1:3), suspended in PBS, and collected at 2000 rpm for 5 min. Cells were then washed twice with ice-cold PBS, followed by resuspension in binding buffer. Next, the samples were incubated with 5 μL of Annexin V Alexa Fluor 647 (Sigma-Aldrich, St. Louis, MO, USA) and 5 μL of propidium iodide for 15 min at room temperature in the dark. Finally, the cells were analyzed by flow cytometry in the Red-R (661/15 nm)—annexin and Near IR-B (785/70 nm)—PI channels on a Guava easyCyte flow cytometer (Merck Millipore, Burlington, MA, USA) for 1 h. The experiments were repeated three times.

HuTu 80 cells [5] = experiment: Cell cycle analysis, propidium iodide flow cytometry; format: cell-based, human; details: HuTu 80, IC50, 48 h, compared with the control
Procedure: The DNA content and cell-cycle distribution after compounds 4b, 5b, 6a, and 8 IC50 concentrations were estimated by flow cytometry. After washing with PBS, treated cells were suspended in 150 μL of PBS, then 0.5 mL of phosphate-citrate buffer (0.05 M, pH 4.0) was added, and the suspension was incubated at room temperature for 5 min to facilitate the extraction of low-molecular-weight DNA. Following centrifugation, the cells were resuspended in 150 μL DNA staining solution (20 μg/mL propidium iodide, 200 μg/mL […]) and incubated in the CO2 incubator (37 °C for 30 min). The distribution of the cell cycle was determined by fluorescence analysis of HuTu 80 cells stained with propidium iodide using Guava easyCyte (Guava easyCyte).

| Structure (SMILES) | HC50 [1] | LD50 at 14 days [2] | onset of animal death after administration (mice of the CD-1 line; CD-1 mice, i.p.) | acute toxicity class (mice of the CD-1 line) | ROS production, CellROX Deep Red fluorescence (in words) (HuTu 80 cells [3]) | IC50 (PC3) | apoptosis-inducing effect (in words) (HuTu 80 cells [4]) | effect on cell cycle (in words) (HuTu 80 cells [5]) | death in animals (mice of the CD-1 line; CD-1 mice, i.p., dose of 150 mg/kg) | time to death (mice of the CD-1 line; CD-1 mice, i.p., doses of 200 and 400 mg/kg) | LD50 (mice of the CD-1 line; male CD-1 mice, single intraperitoneal administration, 14 days, Probit analysis) |
| --- | --- | --- | --- | --- | --- | --- | --- | --- | --- | --- | --- |
| CCCCCCCC[P+](N(CC)CC)(N(CC)CC)N(CC)CC [4b, Tris(diethylamino)(octyl)phosphonium iodide] | >100 µM | 43.4 mg/kg | 1 to 2 h | moderately toxic | increase in the fluorescence intensity | 11.6 ± 0.9 µM | dose-dependent apoptosis | significant delay of cells in the G0/G1 phase | – | – | – |
| CCCCCC[P+](c1ccccc1)(c1ccccc1)N(CC)CC [6a, (Diethylamino)(hexyl)diphenylphosphonium iodide] | > 100 µM | – | – | – | increase in the fluorescence intensity | 4 ± 0.3 µM | number of necrotic cells prevailed | slight change in the cell cycle | – | – | – |
| CCCCCCCC[P+](c1ccccc1)(N(CC)CC)N(CC)CC [5b, Bis(diethylamino)(octyl)(phenyl)phosphonium iodide] | >100 µM | 27.9 mg/kg | 1 to 2 h | moderately toxic | increase in the fluorescence intensity | 11.4 ± 0.9 µM | dose-dependent apoptosis | significant delay of cells in the G0/G1 phase | – | – | – |
| CCCCCCCC[P+](c1ccccc1)(c1ccccc1)N(CC)CC [6b, (Diethylamino)(octyl)diphenylphosphonium iodide] | >100 µM | 102 mg/kg | – | moderately toxic | – | – | – | – | 100% | ≤ 10 min | – |
| CCCCCCCCCC[P+](N(CC)CC)(N(CC)CC)N(CC)CC [4d, Decyltris(diethylamino)phosphonium iodide] | – | 6.9 mg/kg | 1 to 2 h | highly toxic | – | 7.3 ± 0.6 µM | – | – | – | – | 5.9 (3.7÷7.6) mg/kg |
| CCCCCCCC[P+](c1ccccc1)(c1ccccc1)c1ccccc1 [compound 8, Octyltriphenylphosphonium iodide, reference compound] | – | – | – | – | increase in the fluorescence intensity | 0.4 ± 0.03 µM | more active in the early stage of apoptosis | significant delay of cells in the G0/G1 phase | – | – | – |
